Assay results: the NIST ThermoML archive (doi:10.1007/s10765-015-1980-6)
Numbers after ± are expanded uncertainties.

Key:
[1] = xn = mol fraction of the nth substance listed; conditions: 101 kPa, Liquid; for speed of sound: Frequency=2 MHz; for mass density: Pycnometric method
[2] = 101 kPa, Liquid; for speed of sound: Frequency=2 MHz; for mass density: Pycnometric method
[3] = 298.15 K, Linear variable-path acoustic interferometer
[4] = 303.15 K, Linear variable-path acoustic interferometer
[5] = 308.15 K, Linear variable-path acoustic interferometer
[6] = 313.15 K, Linear variable-path acoustic interferometer

Q: Which speed of sound ([1]; 298.15 K, Linear variable-path acoustic interferometer, x1 = 1) does the source give for `OCCOCCO` [diethylene glycol] + OCCCCO here?
A: Its speed of sound is 1579.3 ± 8.1 m/s.

Q: What about the mass density ([1]; 298.15 K, x1 = 1) of the same molecule?
A: The mass density was 1112.7 ± 0.7 kg/m3.

Q: And the speed of sound ([1]; 303.15 K, Linear variable-path acoustic interferometer, x1 = 1)?
A: Its speed of sound is 1568 ± 8 m/s.

Q: And the mass density ([1]; 303.15 K, x1 = 1)?
A: Its mass density is 1109.3 ± 0.7 kg/m3.

Q: And the speed of sound ([1]; 308.15 K, Linear variable-path acoustic interferometer, x1 = 1)?
A: Its speed of sound is 1557.3 ± 8 m/s.

Q: And the mass density ([1]; 308.15 K, x1 = 1)?
A: The mass density was 1105.9 ± 0.7 kg/m3.

Q: And the speed of sound ([1]; 313.15 K, Linear variable-path acoustic interferometer, x1 = 1)?
A: The speed of sound was 1546.1 ± 7.9 m/s.

Q: What about the mass density ([1]; 313.15 K, x1 = 1) of the same molecule?
A: The mass density was 1102.5 ± 0.7 kg/m3.

Q: What does the source list for `CCC(C)O` (stereo unspecified) [butan-2-ol] + OCCOCCO?
A: speed of sound ([1]; 298.15 K, Linear variable-path acoustic interferometer, x2 = 0): 1212.2 ± 6.2 m/s; mass density ([1]; 298.15 K, x2 = 0): 802.4 ± 0.6 kg/m3; speed of sound ([1]; 303.15 K, Linear variable-path acoustic interferometer, x2 = 0): 1194.1 ± 6.1 m/s; mass density ([1]; 303.15 K, x2 = 0): 798.3 ± 0.7 kg/m3; speed of sound ([1]; 308.15 K, Linear variable-path acoustic interferometer, x2 = 0): 1175.3 ± 6 m/s; mass density ([1]; 308.15 K, x2 = 0): 794.2 ± 0.7 kg/m3; speed of sound ([1]; 313.15 K, Linear variable-path acoustic interferometer, x2 = 0): 1157.4 ± 5.9 m/s; mass density ([1]; 313.15 K, x2 = 0): 790.1 ± 0.7 kg/m3

Q: Which results are given for `CCCCO` [butan-1-ol]?
A: speed of sound ([2]; 298.15 K): 1241.1 ± 6.7 m/s; mass density ([2]; 298.15 K): 805.6 ± 0.6 kg/m3; speed of sound ([2]; 303.15 K): 1223.8 ± 6.6 m/s; mass density ([2]; 303.15 K): 801.9 ± 0.6 kg/m3; speed of sound ([2]; 308.15 K): 1205.8 ± 6.5 m/s; mass density ([2]; 308.15 K): 798.2 ± 0.6 kg/m3; speed of sound ([2]; 313.15 K): 1188.8 ± 6.4 m/s; mass density ([2]; 313.15 K): 794.5 ± 0.6 kg/m3

Q: Which results are given for `OCCOCCO` [diethylene glycol]?
A: speed of sound ([2]; 298.15 K): 1579.3 ± 8.5 m/s; mass density ([2]; 298.15 K): 1112.7 ± 0.7 kg/m3; speed of sound ([2]; 303.15 K): 1568 ± 8.4 m/s; mass density ([2]; 303.15 K): 1109.3 ± 0.7 kg/m3; speed of sound ([2]; 308.15 K): 1557.3 ± 8.3 m/s; mass density ([2]; 308.15 K): 1105.9 ± 0.7 kg/m3; speed of sound ([2]; 313.15 K): 1546.1 ± 8.3 m/s; mass density ([2]; 313.15 K): 1102.5 ± 0.7 kg/m3

Q: What does the source list for `OCCCCO` [1,4-butanediol]?
A: speed of sound [2, 3]: 1601.6 ± 8.2 m/s; mass density ([2]; 298.15 K): 1012.6 ± 0.6 kg/m3; speed of sound [2, 4]: 1589.3 ± 8.1 m/s; mass density ([2]; 303.15 K): 1009.6 ± 0.6 kg/m3; speed of sound [2, 5]: 1577.7 ± 8 m/s; mass density ([2]; 308.15 K): 1006.7 ± 0.6 kg/m3; speed of sound [2, 6]: 1565.6 ± 8 m/s; mass density ([2]; 313.15 K): 1003.7 ± 0.6 kg/m3

Q: What does the source list for `CCCCO` [butan-1-ol] + OCCOCCO?
A: speed of sound ([1]; 298.15 K, x2 = 0): 1241.1 ± 6.7 m/s; mass density ([1]; 298.15 K, x2 = 0): 805.6 ± 0.6 kg/m3; speed of sound ([1]; 303.15 K, x2 = 0): 1223.8 ± 6.6 m/s; mass density ([1]; 303.15 K, x2 = 0): 801.9 ± 0.6 kg/m3; speed of sound ([1]; 308.15 K, x2 = 0): 1205.8 ± 6.5 m/s; mass density ([1]; 308.15 K, x2 = 0): 798.2 ± 0.6 kg/m3; speed of sound ([1]; 313.15 K, x2 = 0): 1188.8 ± 6.4 m/s; mass density ([1]; 313.15 K, x2 = 0): 794.5 ± 0.6 kg/m3

Q: What does the source list for `CCC(C)O` (stereo unspecified) [butan-2-ol]?
A: speed of sound [2, 3]: 1212.2 ± 6.2 m/s; mass density ([2]; 298.15 K): 802.4 ± 0.6 kg/m3; speed of sound [2, 4]: 1194.1 ± 6.1 m/s; mass density ([2]; 303.15 K): 798.3 ± 0.7 kg/m3; speed of sound [2, 5]: 1175.3 ± 6 m/s; mass density ([2]; 308.15 K): 794.2 ± 0.7 kg/m3; speed of sound [2, 6]: 1157.4 ± 5.9 m/s; mass density ([2]; 313.15 K): 790.1 ± 0.7 kg/m3
